Measurements reported in patent US5441985A, “Treatment of lower urinary tract disorders with selective norepinephrine uptake inhibitors” (priority 1993, dated 1995).
Where two headings read alike, the source gives them in different places.

Legend:
nocturnal enuresis = details: cited from earlier work; for effectiveness in treating nocturnal enuresis: human, in vivo
[1] = tested on: rat urinary bladder strips; details: cited from earlier work
cholinergic receptors [2] = test: 3H-QNB ligand displacement assay (in vitro anti-cholinergic assay); type: binding; details: 3H-QNB displacement; read-out: anticholinergic IC50
bladder [3] = test: bladder function in the cat; type: in vivo
[4] = tested on: dog urethra and bladder fragments; test: NE release in dog urethra and bladder fragments in vitro
[5] = tested on: rabbit urethra and bladder fragments; test: NE release in rabbit urethra and bladder fragments in vitro
rat urethral tissue = test: contractile response of rat urethral tissue to NE
rat bladder tissue = test: relaxation of rat bladder tissue to NE
[6] = human, in vivo
rabbit bladder = details: cited from earlier work
cholinergic receptors [7] = details: read-out: IC50 for displacement of tritiated-quinuclidinol benzoate (QNB) binding, cited from earlier work
stress incontinence = details: women with stress incontinence; cited from earlier work
guinea pig bladder = details: guinea pig strips in vitro and cystometrogram in vivo; cited from earlier work
rabbit bladder strips [8] = details: cited from earlier work
dog bladder strips [9] = details: cited from earlier work
human bladder strips = details: cited from earlier work
dog bladder strips [10] = details: cited from earlier work; remark: listed apart in the source
bladder [11] = details: female dogs; cited from earlier work
[12] = tested on: muscarinic presynaptic receptors; details: rat bladder tissue in vitro; cited from earlier work
rabbit bladder strips [13] = details: in the presence of imipramine; cited from earlier work
rabbit detrusor strips = rabbit detrusor strips in vitro; cited from earlier work
frog sciatic nerves = frog sciatic nerves in vitro; cited from earlier work
dog bladder and urethra = details: cited from earlier work
cat bladder = details: in vivo; cited from earlier work
[14] = tested on: dog bladder muscle strips; details: cited from earlier work
urethra = details: female dogs; cited from earlier work
micturition reflex = details: cited from earlier work
[15] = tested on: guinea pig bladder muscle strips; details: guinea pig bladder muscle strips in vitro; cited from earlier work
[16] = children under 5 years of age; cited from earlier work
[17] = clinical evaluation as potential treatments for depression, side effects

## CN(C)CCC=C1c2ccccc2CCc2ccccc21 [amitriptyline]
Nocturnal enuresis
  effectiveness in treating nocturnal enuresis: effective
[1]
  contractile response to electrical stimulation: suppressed the contractile response

## CNCC[C@@H](Oc1ccccc1C)c1ccccc1 [tomoxetine, (-)-N-methyl-3-(2-methylphenoxy)-3-phenylpropylamine]
Cholinergic receptors [2]
  IC50: 21 µM
Bladder [3]
  amplitude and frequency of contractions: decreasing the amplitude and frequency of contractions
  bladder capacity: increasing bladder capacity
[4]
  NE release: increase NE release
[5]
  NE release: increase NE release
Rat urethral tissue
  contractile response of urethral tissue to NE: significantly increase the contractile response
Rat bladder tissue
  relaxation of bladder tissue to NE: augment the relaxation
[6]
  noted side effect: urine retention
  side effects such as dry mouth, drowsiness, and dizziness: considerably fewer side effects

## CNCCCN1c2ccccc2CCc2ccccc21 [desipramine]
Nocturnal enuresis
  effectiveness in treating nocturnal enuresis: effective
[1]
  contractile response to electrical stimulation: suppressed the contractile response

## COc1ccc(CCN(C)CCCC(C#N)(c2ccc(OC)c(OC)c2)C(C)C)cc1OC (centres unmarked) [verapamil]
Rabbit bladder
  suppression/inhibition of field stimulated contraction: 81%
Rabbit bladder; rabbit, bladder
  suppression/relaxation of bethanechol-induced contraction: 85%

## CC(C)[N+](C)(CCOC(=O)C1c2ccccc2Oc2ccccc21)C(C)C [propantheline]
Cholinergic receptors [7]; bladder homogenates
  IC50: 29.5 µM

## CN(C)CCCN1c2ccccc2CCc2ccccc21 [imipramine]
[4]
  NE release: increase NE release
[5]
  NE release: increase NE release
Cholinergic receptors [7]; bladder homogenates
  IC50: 13 µM
Rabbit bladder; rabbit bladder organ bath
  suppression/inhibition of field stimulated contraction: 50%
  suppression/relaxation of bethanechol-induced contraction: 50%
Nocturnal enuresis; following treatment
  further patients with improvements: 15-20%
  patients with enuresis cured: over 50%
Stress incontinence
  restoring continence: effective as a single therapy
Guinea pig bladder
  activity on bladder: anticholinergic, antispasmodic, and local anesthetic activity
Rabbit bladder strips [8]
  contractile responses to acetylcholine (ACH): block in vitro contractile responses
Dog bladder strips [9]
  contractile responses to acetylcholine (ACH): block in vitro contractile responses
Human bladder strips
  contractile responses to acetylcholine (ACH): block in vitro contractile responses
Dog bladder strips [10]
  contractile responses to barium chloride: suppressed contractile responses to barium chloride
Dog bladder strips [10]; compared with flavoxate
  musculotropic relaxant effect: more potent than that of flavoxate
Dog bladder strips [10]; dog bladder strips
  cholinergic contractile responses induced by bethanechol: suppressed cholinergic contractile responses
Bladder [11]
  bladder pressure responses to pelvic nerve stimulation: reduced bladder pressure responses
[12]
  effect on muscarinic presynaptic receptors: strong antagonistic effect on muscarinic presynaptic receptors
Rabbit bladder strips [13]
  effectiveness of calcium to augment bethanechol-induced contraction: decreased effectiveness of calcium
Rabbit detrusor strips
  carbamylcholine and barium chloride-induced contractions: antagonize
Frog sciatic nerves
  impulse conduction: block the impulse conduction
Dog bladder and urethra
  bladder and urethral pressure responses to pelvic nerve stimulation and other stimuli: reduce dog bladder and urethral pressure responses
Cat bladder
  effects of hypogastric nerve stimulation on bladder relaxation: potentiated the effects of hypogastric nerve stimulation
[14]; with norepinephrine
  relaxation effects of norepinephrine: enhanced the in vitro relaxation effects of norepinephrine
[14]; without norepinephrine
  effect on bladder muscle strips alone: no effects alone
urethra
  urethral pressure: increase urethral pressure
Micturition reflex; acute administration
  supraspinal reflex or myogenic activity of bladder: no effect
  threshold for activating the bladder-spinal-bladder (vesicovesical) micturition reflex: increased the threshold
Micturition reflex; repeated administration
  threshold for supraspinal reflex: increased threshold for supraspinal reflex
[15]
  potassium-induced contraction: suppression of potassium-induced contraction
[16]
  toxicity in children: particularly toxic and potentially lethal in low dosage
[17]
  noted side effect: urine retention

## CNCCC=C1c2ccccc2CCc2ccccc21 [nortriptyline]
Nocturnal enuresis
  effectiveness in treating nocturnal enuresis: effective

## CN1[C@@H]2CC[C@H]1C[C@@H](OC(=O)C(CO)c1ccccc1)C2 (some centres unmarked) [atropine]
Cholinergic receptors [7]
  IC50: 52 µM
Rabbit bladder; rabbit bladder organ bath
  suppression/inhibition of field stimulated contraction: 30%
  suppression/relaxation of bethanechol-induced contraction: 70%
[15]
  potassium-induced contraction: not effect at high concentration

## CCN(CC)CC(=O)Nc1c(C)cccc1C [lidocaine]
[15]
  potassium-induced contraction: not effect at high concentration
